Measurements from patent publication US5859037A, “Sulfonylurea-glitazone combinations for diabetes” (Warner-Lambert Company, priority 1997, dated 1999).

Experiments:
[1] = system: non-insulin dependent diabetes mellitus (NIDDM); test: Glycemic control (FSG, HbA1c, responders) in 52-week double-blind clinical study; format: in vivo, patients; conditions: for ≥30 mg/dL Reduction in FSG, Responders, N (%) / ≥1% Reduction in HbA1c, Responders, N (%): *p ≤ 0.001 vs glyburide
Excerpt: The method of treating diabetes employing a combination of a sulfonylurea and a glitazone has been established in a long-term controlled clinical evaluation. The study determined the efficacy and safety of troglitazone alone and in combination with the sulfonylurea glyburide for the treatment of non-insulin dependent diabetes mellitus (NIDDM). This study targeted the segment of the NIDDM population in which the disease state has progressed to a point where maximum doses of sulfonylureas no longer produce adequate glycemic control. […] Since the unstimulated (absence of sulfonylurea) insulin secretory capacity of the beta cells is very low in this population, reversing insulin resistance alone would be of partial benefit. Therefore, maintaining a level of stimulated insulin secretion with a sulfonylurea while adding troglitazone to improve insulin sensitivity could provide a level of glycemic control unattainable by either medication alone. […] Long-term safety was also an objective of this study, assessed by adverse events and clinical laboratory data. This was a 12-month, double-blind, randomized, parallel-group, active-control, multicenter study design (FIG. 1). […] The primary efficacy parameters included endpoints related to glucose homeostasis: FSG and HbA1c. The change from baseline in these parameters at Week 52 compared to active control (glyburide) was the primary measure of efficacy. For patients terminating early from the study, their last observation was carried forward (LOCF) to Week 52. A decrease in these parameters was indicative of an improvement in glycemic control. Efficacy analysis was performed on 2 patient populations, intent-to-treat and completers. […] Patients withdrawing from the study before Week 52 were included in the analysis using the LOCF procedure; the last measurement on treatment was substituted for the missing Week 52 measurement. The intent-to-treat patient sample was the primary sample for assessing efficacy. Completers comprised patients in the intent-to-treat sample who completed Week 52. The analysis of change from baseline to Week 52 was performed using analysis of covariance (ANCOVA). The primary model included effects due to treatment and center and baseline as covariate. Treatment-by-baseline and treatment-by-center interactions were also examined in supplemental models. For the primary comparisons of glyburide versus each combination, step-down tests for linear trend in dose response were performed based on the primary model. For the remaining primary pairwise comparisons of glyburide versus each monotherapy, t-tests were performed using the MSE from the analysis of covariance (with a Bonferroni-Holm adjustment). For all comparisons with glyburide, 95 confidence intervals are provided using Dunnett's test. […] For each patient, the baseline measurement for a given parameter was defined as the measurement at Week 0. […] The frequency distribution (number and percentage) of responders were provided by treatment group and visit. For the set of primary treatment comparisons concerning glyburide versus combination therapy, step-down comparisons of responders in each treatment group versus the glyburide group were performed by sequential application of the Cochran-Mantel-Haenszel (CMH) test for linear trend with study centers as strata. […] The CMH test for general association were also used to perform the secondary treatment comparisons as supplemental analysis.

[2] = system: lipid parameters (markers of lipid metabolism); test: Fasting serum lipid profile in 52-week clinical study; format: in vivo, patients
Description: After an initial screening visit, patients meeting the inclusion criteria entered a 4-week baseline phase (unblinded) in which they received 12 mg micronized glyburide (6 mg BID).
Secondary efficacy parameters included markers of glycemic homeostasis (insulin and C-peptide) and markers of lipid metabolism (total cholesterol, total triglycerides, HDL, VLDL, LDL (measured), free fatty acids, Lp(a), Apo A1, and Apo B).
Efficacy analysis was performed on 2 patient populations, intent-to-treat and completers. […] Patients withdrawing from the study before Week 52 were included in the analysis using the LOCF procedure; the last measurement on treatment was substituted for the missing Week 52 measurement. The intent-to-treat patient sample was the primary sample for assessing efficacy. Completers comprised patients in the intent-to-treat sample who completed Week 52.
Summary statistics for baseline, follow-up (post-randomization), and change from baseline in secondary efficacy parameters were computed by treatment group and visit. For each patient, the baseline measurements for insulin, C-peptide, blood pressure, total cholesterol, triglycerides, LDL, HDL, VLDL, and free fatty acids were defined as the measurement at Week 0. In order to reduce variability, the baseline Apo A, Apo B, and Lp(a) levels were defined as the average of the respective measurements at Weeks -1 and 1. Similarly, the end-of-treatment Apo A, Apo B, and Lp(a) measurements were defined as the average of the respective measurements at Weeks 48 and 52. Averages from Weeks 20 and 24 were not carried forward for these special lipid parameters.
Fasting serum lipid profiles were determined at baseline and periodically through Week 52. Apo A1, Apo B, and Lp(a) were determined only at baseline, Month 6, and Month 12 as part of a special laboratory panel.

[3] = Completers, Week 52, troglitazone 200 mg, or 200 mg/12 mg in combination
[4] = Completers, Week 52, troglitazone 200 mg, or 200 mg/12 mg in combination, *p ≤ 0.05, **p ≤ 0.0001
[5] = Completers, Week 52, troglitazone 400 mg, or 400 mg/12 mg in combination
[6] = Completers, Week 52, troglitazone 600 mg, or 600 mg/12 mg in combination
[7] = ITT, Week 52, troglitazone 200 mg, or 200 mg/12 mg in combination
[8] = ITT, Week 52, troglitazone 200 mg, or 200/12 mg in combination
[9] = ITT, Week 52, troglitazone 400 mg, or 400 mg/12 mg in combination, *p ≤ 0.001, **p ≤ 0.0001
[10] = ITT, Week 52, troglitazone 400 mg, or 400/12 mg in combination
[11] = ITT, Week 52, troglitazone 600 mg, or 600 mg/12 mg in combination, *p ≤ 0.001, **p ≤ 0.0001
[12] = ITT, Week 52, troglitazone 600 mg, or 600/12 mg in combination

Question: What does the source list for `Cc1c(C)c2c(c(C)c1O)CCC(C)(COc1ccc(CC3SC(=O)NC3=O)cc1)O2` (stereo not shown) [Troglitazone]?
Answer: Fasting Serum Glucose, Adjusted Mean Change From Baseline (SE) [1, 3]: 13.4 (12.0) mg/dL; Hemoglobin A1c, Adjusted Mean Change From Baseline (SE) [1, 3]: 0.55 (0.38) %; Fasting Serum Glucose, Adjusted Mean Difference From Glyburide Monotherapy (SE) [1, 4]: 0.3 (14.6) mg/dL; Hemoglobin A1c, Adjusted Mean Difference From Glyburide Monotherapy (SE) [1, 4]: -0.23 (0.46) %; Fasting Serum Glucose, Adjusted Mean Change From Baseline (SE) [1, 5]: -20.5 (9.4) mg/dL; Hemoglobin A1c, Adjusted Mean Change From Baseline (SE) [1, 5]: -0.25 (0.29) %; Fasting Serum Glucose, Adjusted Mean Change From Baseline (SE) [1, 6]: -11.7 (9.8) mg/dL; Hemoglobin A1c, Adjusted Mean Change From Baseline (SE) [1, 6]: -0.26 (0.30) %; Fasting Serum Glucose, Adjusted Mean Difference From Glyburide Monotherapy (SE) ([1]; Completers, Week 52, troglitazone 600 mg, or 600 mg/12 mg in combination, *p ≤ 0.05, **p ≤ 0.0001): -24.8 (12.6) mg/dL; Fasting Serum Glucose, Adjusted Mean Change From Baseline (SE) ([1]; ITT, Week 52 (Month 12), troglitazone 200 mg, or 200 mg/12 mg in combination): 42.4 (7.0) mg/dL; Fasting Serum Glucose, Adjusted Mean Change From Baseline (SE) ([1]; ITT, Week 52 (Month 12), troglitazone 400 mg, or 400 mg/12 mg in combination): 20.6 (7.0) mg/dL; Fasting Serum Glucose, Adjusted Mean Change From Baseline (SE) ([1]; ITT, Week 52 (Month 12), troglitazone 600 mg, or 600 mg/12 mg in combination): 11.1 (7.1) mg/dL; FSG versus glyburide (result in words) ([1]; ITT, Week 52, 400 and 600 mg troglitazone monotherapy): these decreases were not significant; Hemoglobin A1c, Adjusted Mean Change From Baseline (SE) [1, 7]: 1.92 (0.20) %; Fasting Serum Glucose, Adjusted Mean Difference From Glyburide Monotherapy (SE) ([1]; ITT, Week 52, troglitazone 200 mg, or 200 mg/12 mg in combination, *p ≤ 0.001, **p ≤ 0.0001): 19.6 (9.7) mg/dL; Hemoglobin A1c, Adjusted Mean Change From Baseline (SE) ([1]; ITT, Week 52, troglitazone 200 mg, or 200 mg/12 mg in combination, listed as troglitazone): 1.92%; ≥30 mg/dL Reduction in FSG, Responders, N (%) [1, 8]: 11 (14) N (%); ≥1% Reduction in HbA1c, Responders, N (%) [1, 8]: 3 (4) N (%); Hemoglobin A1c, Adjusted Mean Change From Baseline (SE) ([1]; ITT, Week 52, troglitazone 400 mg, or 400 mg/12 mg in combination): 0.85 (0.20) %; Fasting Serum Glucose, Adjusted Mean Difference From Glyburide Monotherapy (SE) [1, 9]: -2.2 (9.7) mg/dL; Hemoglobin A1c, Adjusted Mean Difference From Glyburide Monotherapy (SE) [1, 9]: -0.05 (0.28) %; ≥30 mg/dL Reduction in FSG, Responders, N (%) [1, 10]: 20 (26) N (%); ≥1% Reduction in HbA1c, Responders, N (%) [1, 10]: 13 (17) N (%); Hemoglobin A1c, Adjusted Mean Change From Baseline (SE) ([1]; ITT, Week 52, troglitazone 600 mg, or 600 mg/12 mg in combination): 0.93 (0.20) %; Fasting Serum Glucose, Adjusted Mean Difference From Glyburide Monotherapy (SE) [1, 11]: -11.6 (9.7) mg/dL; Hemoglobin A1c, Adjusted Mean Difference From Glyburide Monotherapy (SE) [1, 11]: 0.03 (0.28) %; ≥30 mg/dL Reduction in FSG, Responders, N (%) [1, 12]: 18 (24) N (%); ≥1% Reduction in HbA1c, Responders, N (%) [1, 12]: 8 (11) N (%); HbA1c versus glyburide monotherapy (result in words) ([1]; completers, 400 and 600 mg troglitazone monotherapy, p ≤0.05): HbA1c decreased significantly (p ≤0.05) compared with glyburide monotherapy; HDL adjusted mean change, difference from glyburide ([2]; 600 mg troglitazone monotherapy, p<0.05): 4.9 mg/dL; Apo A1, Change From Baseline, Mean [2, 7]: 1.9 mg/dL; Apo B, Change From Baseline, Mean [2, 7]: 6.4 mg/dL; Free Fatty Acids, Change From Baseline, Mean [2, 7]: -0.09 mEq/L; Free Fatty Acids, Change From Baseline, Median [2, 7]: -0.04 mEq/L; HDL Cholesterol, Change From Baseline, Mean [2, 7]: 0.86 mg/dL; HDL Cholesterol, Change From Baseline, Median [2, 7]: 1.00 mg/dL; LDL Cholesterol, Change From Baseline, Mean [2, 7]: 17.78 mg/dL; LDL Cholesterol, Change From Baseline, Median [2, 7]: 20.50 mg/dL; LP(a), Change From Baseline, Mean [2, 7]: 8.8 mg/dL; Total Cholesterol, Change From Baseline, Mean [2, 7]: 19.96 mg/dL
